This note sets out measurements from ChEMBL document CHEMBL1208714, “Dimeric cyclohexane-1,3-dione oximes inhibit wheat acetyl-CoA carboxylase and show anti-malarial activity” (Bioorg Med Chem Lett, 2010).

Usually IC50 stands for the point on the concentration scale where inhibition reaches its midpoint. Read a low IC50 as higher potency.

Activity calls are given as the source filed them. No cut-off for these calls is given here.

One assay deals with acetyl-CoA carboxylase (Triticum aestivum). Nature of the assay: Inhibition of wheat ACC at 20 uM.
With `CCO/N=C(\CC)C1=C(O)CC(c2ccc(C3CC(=O)C(/C(CC)=N/OCC)=C(O)C3)cc2)CC1=O` (stereo not drawn), the inhibition entry was “Active”.

For `CCCC(=O)c1c(C)cc(C)c(C2CC(=O)C(/C(CC)=N/OCC)=C(O)C2)c1C` (stereo not drawn) [BUTROXYDIM], the inhibition result is “Active”.

The test system of the next assay is Plasmodium falciparum. Put plainly: Antimalarial activity against Plasmodium falciparum D10. The assay is classed as functional, organism-based.
With `C=CCO/N=C(\CCC)C1=C(O)CC(c2cccc(C3CC(=O)C(/C(CCC)=N/OCC=C)=C(O)C3)c2)CC1=O` (stereo not drawn), 2.5 µM corresponded to half-maximal inhibition (IC50). The compound `CCO/N=C(\C)C1=C(O)CC(c2ccc(C3CC(=O)C(/C(C)=N/OCC)=C(O)C3)cc2)CC1=O` (stereo not drawn) yielded an IC50 of 12 µM. On the same count and under the same terms, the value for `CCO/N=C(\CC)C1=C(O)CC(c2ccc(C3CC(=O)C(/C(CC)=N/OCC)=C(O)C3)cc2)CC1=O` (stereo not drawn) was 6 µM; that for `CC(Oc1ccc(Oc2cnc3cc(Cl)ccc3n2)cc1)C(=O)O` (stereo not drawn) [QUIZALOFOP] was above 100 µM; that for `CCO/N=C(\CC)C1=C(O)CC(c2c(C)cc(C)c(C(C)=O)c2C)CC1=O` (stereo not drawn) was above 10 µM. Same read-out and setting: the result for `CCSC(C)CC1CC(=O)C(/C(CC)=N/OC/C=C/Cl)=C(O)C1` (stereo not drawn) [CLETHODIM] reads above 250 µM; that for `CCOC(=O)C(C)Oc1ccc(Oc2cnc3cc(Cl)ccc3n2)cc1` (stereo not drawn) [QUIZALOFOP ETHYL ESTER], above 100 µM; that for `CC/C(=N\OC/C=C/Cl)C1=C(O)CC(C2CCOCC2)CC1=O` (stereo not drawn) [TEPRALOXYDIM], above 100 µM.

Take `CCC/C(=N\OC(c1ccccc1)c1ccccc1)C1=C(O)CC(c2cccc(C3CC(=O)C(/C(CCC)=N/OC(c4ccccc4)c4ccccc4)=C(O)C3)c2)CC1=O` (stereo not drawn): the IC50 came out at 25 µM.

Consider `CCCC(=O)c1c(C)cc(C)c(C2CC(=O)C(/C(CC)=N/OCC)=C(O)C2)c1C` (stereo not drawn) [BUTROXYDIM], for which the IC50 was 10 µM. Same read-out and setting: the result for `CCO/N=C(\CC)C1=C(O)CC(c2c(C)cc(C)cc2C)CC1=O` (stereo not drawn) [TRALKOXYDIM] reads above 100 µM; that for `CCO/N=C(\CC)C1=C(O)CC(c2cccc(C3CC(=O)C(/C(CC)=N/OCC)=C(O)C3)c2)CC1=O` (stereo not drawn), 3 µM; that for `CCC/C(=N\OCC)C1=C(O)CC(c2ccc(C3CC(=O)C(/C(CCC)=N/OCC)=C(O)C3)cc2)CC1=O` (stereo not drawn), 5 µM. The compound `CCC/C(=N\OCC)C1=C(O)CC(c2cccc(C3CC(=O)C(/C(CCC)=N/OCC)=C(O)C3)c2)CC1=O` (stereo not drawn) yielded an IC50 of 4 µM. Take `CCC/C(=N\OCc1ccccc1)C1=C(O)CC(c2cccc(C3CC(=O)C(/C(CCC)=N/OCc4ccccc4)=C(O)C3)c2)CC1=O` (stereo not drawn): the midpoint of inhibition, the IC50, lay at 12.5 µM.

Tested on in the next assay: not listed separately
Nature of the assay: Inhibition of maize ACC. Further details: species or system Zea mays.
Take `CC(Oc1ccc(Oc2cnc3cc(Cl)ccc3n2)cc1)C(=O)O` (stereo not drawn) [QUIZALOFOP]: the IC50 was 0.016 µM. On the same count and under the same terms, the result for `CCSC(C)CC1CC(=O)C(/C(CC)=N/OC/C=C/Cl)=C(O)C1` (stereo not drawn) [CLETHODIM] reads 0.02 µM; that for `CCOC(=O)C(C)Oc1ccc(Oc2cnc3cc(Cl)ccc3n2)cc1` (stereo not drawn) [QUIZALOFOP ETHYL ESTER], above 1 µM. The same measure, in the same setting: the result for `CC/C(=N\OC/C=C/Cl)C1=C(O)CC(C2CCOCC2)CC1=O` (stereo not drawn) [TEPRALOXYDIM] reads 0.7 µM; that for `CCCC(=O)c1c(C)cc(C)c(C2CC(=O)C(/C(CC)=N/OCC)=C(O)C2)c1C` (stereo not drawn) [BUTROXYDIM], 0.3 µM; that for `CCO/N=C(\CC)C1=C(O)CC(c2c(C)cc(C)cc2C)CC1=O` (stereo not drawn) [TRALKOXYDIM], 0.52 µM.
